Laboratory results as given in patent US6444850B1, “Fungicidial compounds having a fluorovinyloxphyenyl moiety and process for the preparation thereof” (priority 1997, dated 2002).

How the values were obtained:
[1] = test system: Pyricularia oryzae Carvara KA301; type: in vivo; conditions: for C. V. (%) Fungicidal Activities against RCB at 10 ppm / C. V. (%) Fungicidal Activities against RCB at 10 ppm (TABLE 6): sprayed on Nakdong rice plant, control value from lesion area; for C. V. (%) RCB: 50 ppm, control value, rice blast
Puccinia recondita = assay: Fungicidal activity against wheat leaf rust (WLR) disease; type: in vivo; conditions: for C. V. (%), Fungicidal Activities against WLB at 10 ppm: Table 8 (Test Example 5); for C. V. (%) WLR: 50 ppm, control value, wheat leaf rust
Botrytis cinerae = assay: Fungicidal activity against cucumber gray mold rot (CGM) disease; type: in vivo; conditions: 50 ppm, control value
Rhizoctonia solani AG-1 = assay: Fungicidal activity against rice sheath blight (RSB) disease; conditions: 50 ppm, control value
Protocol: 50 ml of the resulting solution was sprayed on leaves of a host plant. The plant was kept at room temperature for 24 hours to let the solvent evaporate, and then, a pathogenic fungus was inoculated thereonto. The plant was held in a humidity chamber for 24 hours, transferred to an plant growth room kept at 20 to 27° C. and a relative humidity of 60 to 80% and kept to induce disease. Subsequently, the lesion area(L.A.) attacked by the pathogenic fungus was measured according to a method of Cho(Cho, K. Y., Search Report by Korea Research Institute of Chemical Technology (1989))”. This procedure was repeated twice for each test. 10% Acetone solution containing 250 ppm of Tween-20 was used as a control.
The fungicidal activity of the compound of the present invention is repressed by a control value (C.V.) calculated as; [formula]
Rhizoctonia solani AG-1 was cultured on a PDA medium(potato 200 g, dextrose 20 g, agar 20 g and distilled water 1 l) for 3 days and the agar disc (diameter 0.6 cm) was inoculated and cultured on sterilized wheat bran medium in a 1 l bottle at 26 to 28° C. for 7 days. A mycelial mass was ground using a homogenizer, inoculated uniformly on soil of a pot wherein a Nakdong rice plant having 2 or 3 leaves and an height of 5 cm grew, and kept in humidity polyvinyl chamber for 5 days to induce RSB. L.A. on a leaf sheath was measured to calculate an C.V.

Erysiphae graminis = assay: Fungicidal activity against barley powdery mildew (BPM) disease; type: in vivo; conditions: for C. V. (%), Fungicidal activities against TLB at 10 ppm: Table 9 (Test Example 6); for C. V. (%) BPM: 50 ppm, control value, barley powdery mildew
Phytophthora infestans = type: in vivo; conditions: 50 ppm; control value, tomato late blight

SMILES | C. V. (%) Fungicidal Activities against RCB at 10 ppm [1] | C. V. (%) Fungicidal Activities against RCB at 10 ppm (TABLE 6) [1] | C. V. (%) RCB [1] | C. V. (%), Fungicidal Activities against WLB at 10 ppm (Puccinia recondita) | C. V. (%) WLR (Puccinia recondita) | C. V. (%) CGM (Botrytis cinerae) | C. V. (%) RSB (Rhizoctonia solani AG-1) | C. V. (%), Fungicidal activities against TLB at 10 ppm (Erysiphae graminis) | C. V. (%) BPM (Erysiphae graminis) | C. V. (%) TLB (Phytophthora infestans)
CNC(=O)C(=NOC)c1ccccc1COc1cccc(OC(F)=C(c2ccc(OC)cc2)C(F)(F)F)c1 [Compound 77] | 96% | 96% | 99% | 100% | 100% | 11% | 60% | 100% | 100% | 82%
CCOc1ccc(C(=C(F)Oc2cccc(OCc3ccccc3C(=COC)C(=O)OC)c2)C(F)(F)F)cc1 [Compound 78] | – | – | 0% | 97% | 98% | 0% | 40% | 100% | 100% | 0%
CCOc1ccc(C(=C(F)Oc2cccc(OCc3ccccc3C(=NOC)C(=O)OC)c2)C(F)(F)F)cc1 [Compound 79] | – | – | 0% | 96% | 100% | 7% | 55% | 99% | 100% | 18%
CCOc1ccc(C(=C(F)Oc2cccc(OCc3ccccc3C(=NOC)C(=O)NC)c2)C(F)(F)F)cc1 [Compound 80] | 95% | 95% | 100% | 100% | 100% | 0% | 0% | 100% | 100% | 0%
COC=C(C(=O)OC)c1ccccc1COc1cccc(OC(F)=C(c2ccc3c(c2)OCO3)C(F)(F)F)c1 [Compound 81] | – | – | 86% | 100% | 100% | 0% | 65% | 100% | 100% | 33%
CON=C(C(=O)OC)c1ccccc1COc1cccc(OC(F)=C(c2ccc3c(c2)OCO3)C(F)(F)F)c1 [Compound 82] | – | – | 50% | 96% | 98% | 0% | 45% | 97% | 100% | 0%
COC=C(C(=O)OC)c1ccccc1COc1cccc(OC(F)=C(c2cccc(C(F)(F)F)c2)C(F)(F)F)c1 [Compound 83] | – | – | 25% | 94% | 100% | 0% | 50% | 100% | 100% | 11%
COC=C(C(=O)OC)c1ccccc1COc1cccc(OC(F)=C(c2cccc(Cl)c2)C(F)(F)F)c1 [Compound 84] | 95% | 95% | 90% | 97% | 100% | 16% | 25% | 100% | 100% | 81%
CNC(=O)C(=COC)c1ccccc1COc1cccc(OC(F)=C(c2cccc(Cl)c2)C(F)(F)F)c1 [Compound 85] | – | – | 16% | – | 73% | 16% | 10% | – | 0% | 22%
CON=C(C(=O)OC)c1ccccc1COc1cccc(OC(F)=C(c2cccc(Cl)c2)C(F)(F)F)c1 [Compound 86] | – | – | 90% | 96% | 100% | 27% | 90% | 95% | 100% | 22%
CNC(=O)C(=NOC)c1ccccc1COc1cccc(OC(F)=C(c2cccc(Cl)c2)C(F)(F)F)c1 [Compound 87] | 100% | 100% | 100% | 100% | 100% | 0% | 0% | 100% | 100% | 0%
